From ChEMBL document CHEMBL1201862, “PubChem BioAssay data set” (2004)
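In this assay, cells in 96-well plates receive the compound at five concentrations for 48 hours. Endpoints are linearly interpolated between the surrounding concentrations. GI50: concentration for 50% inhibition of growth.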 The source made the active and inactive calls. No stated cut-off is given here; in the data, active = GI50 up to about 1.1 µM and inactive = higher.

Key:
Test in all cases: DTP human tumour cell line panel, 48 h
BT-549 = system: BT-549
COLO 205 = system: COLO 205
PC-3 = system: PC-3
HOP-62 = system: HOP-62
SW-620 = system: SW-620
TK-10 = system: TK-10
SF-539 = system: SF-539
HOP-92 = system: HOP-92
786-0 = system: 786-0
MCF7 = system: MCF7
SN12C = system: SN12C
SF-295 = system: SF-295
Hs-578T = system: Hs-578T
UACC-62 = system: UACC-62
MDA-MB-231 = system: MDA-MB-231
DU-145 = system: DU-145
U-251 = system: U-251
SK-OV-3 = system: SK-OV-3
NCI-H460 = system: NCI-H460
SF-268 = system: SF-268
HL-60 = system: HL-60
A549 = system: A549
CAKI-1 = system: CAKI-1
ACHN = system: ACHN
HT-29 = system: HT-29
NCI-H226 = system: NCI-H226
KM12 = system: KM12
MDA-MB-435 = system: MDA-MB-435
MDA-N = system: MDA-N
SK-MEL-5 = system: SK-MEL-5
UACC-257 = system: UACC-257
SNB-75 = system: SNB-75
RXF 393 = system: RXF 393
HCT-116 = system: HCT-116
SNB-19 = system: SNB-19
NCI-H23 = system: NCI-H23
A498 = system: A498
LOX IMVI = system: LOX IMVI
OVCAR-8 = system: OVCAR-8
NCI-H522 = system: NCI-H522
OVCAR-3 = system: OVCAR-3
EKVX = system: EKVX
HCT-15 = system: HCT-15
NCI/ADR-RES = system: NCI/ADR-RES
UO-31 = system: UO-31
T47D = system: T47D
MOLT-4 = system: MOLT-4
OVCAR-5 = system: OVCAR-5
CCRF-CEM = system: CCRF-CEM
RPMI-8226 = system: RPMI-8226
M14 = system: M14
K562 = system: K562
OVCAR-4 = system: OVCAR-4
IGROV-1 = system: IGROV-1
SK-MEL-28 = system: SK-MEL-28
SK-MEL-2 = system: SK-MEL-2
HCC 2998 = system: HCC 2998
Malme-3M = system: Malme-3M

`O=c1c2ccccc2nc(-c2ccc(Cl)cc2)n1O` was tested, and the GI50 (BT-549) was 27.3 µM (inactive), the GI50 (COLO 205) was 34.6 µM (inactive) and the GI50 (PC-3) was 33.9 µM (inactive). For the same molecule, the GI50 (HOP-62) was 9.12 µM (inactive), the GI50 (SW-620) was 33.7 µM (inactive) and the GI50 (TK-10) was 21.1 µM (inactive). The GI50 (SF-539) was 23.8 µM (inactive), the GI50 (HOP-92) was 15.6 µM (inactive) and the GI50 (786-0) was 22.2 µM (inactive). For the same molecule, the GI50 (MCF7) was 20 µM (inactive), the GI50 (SN12C) was 35.7 µM (inactive) and the GI50 (SF-295) was 27.5 µM (inactive). The GI50 (Hs-578T) was 76 µM (inactive), the GI50 (UACC-62) was 35.9 µM (inactive) and the GI50 (MDA-MB-231) was > 100 µM (inactive). For the same molecule, the GI50 (DU-145) was 89.9 µM (inactive), the GI50 (U-251) was 20.8 µM (inactive) and the GI50 (SK-OV-3) was 28.2 µM (inactive). For the same molecule, the GI50 (NCI-H460) was 11.1 µM (inactive), the GI50 (SF-268) was 18.8 µM (inactive) and the GI50 (HL-60) was 18.3 µM (inactive). For the same molecule, the GI50 (A549) was 29.4 µM (inactive), the GI50 (CAKI-1) was 15.2 µM (inactive) and the GI50 (ACHN) was 22.5 µM (inactive). For the same molecule, the GI50 (HT-29) was 45.7 µM (inactive), the GI50 (NCI-H226) was 15.5 µM (inactive) and the GI50 (KM12) was 9.53 µM (inactive). For the same molecule, the GI50 (MDA-MB-435) was 26.5 µM (inactive), the GI50 (MDA-N) was 35.6 µM (inactive) and the GI50 (SK-MEL-5) was 29.9 µM (inactive). The GI50 (UACC-257) was 24.9 µM (inactive), the GI50 (SNB-75) was 38.2 µM (inactive) and the GI50 (RXF 393) was 26.7 µM (inactive). For the same molecule, the GI50 (HCT-116) was 29.7 µM (inactive), the GI50 (SNB-19) was 25.2 µM (inactive) and the GI50 (NCI-H23) was 48.4 µM (inactive). The GI50 (A498) was 53.7 µM (inactive), the GI50 (LOX IMVI) was 1.11 µM (active) and the GI50 (OVCAR-8) was 16.5 µM (inactive). The GI50 (NCI-H522) was 15.3 µM (inactive), the GI50 (OVCAR-3) was 40.2 µM (inactive) and the GI50 (EKVX) was 21.7 µM (inactive). The GI50 (HCT-15) was 9.55 µM, the GI50 (NCI/ADR-RES) was 19.6 µM (inactive) and the GI50 (UO-31) was 2.2 µM (inactive). The GI50 (T47D) was > 100 µM (inactive), the GI50 (MOLT-4) was 17.9 µM (inactive) and the GI50 (OVCAR-5) was 47.4 µM (inactive). For the same molecule, the GI50 (CCRF-CEM) was 14.1 µM (inactive), the GI50 (RPMI-8226) was 26.9 µM (inactive) and the GI50 (M14) was 26.4 µM (inactive). The GI50 (K562) was 22.9 µM (inactive), the GI50 (OVCAR-4) was 37 µM (inactive) and the GI50 (IGROV-1) was 2.19 µM (inactive).

For `CCC(C)C(=O)OC1C(=O)OC2CC3C(C)=CC(=O)C(O)C3(C)C3C4(O)OCC23C1C(C)C4O` (stereo not drawn), the GI50 (BT-549) was < 0.017 µM (active), the GI50 (COLO 205) was 0.205 µM (active) and the GI50 (PC-3) was < 0.0199 µM (active). For the same molecule, the GI50 (HOP-62) was < 0.019 µM (active), the GI50 (SW-620) was 0.0136 µM (active) and the GI50 (TK-10) was < 0.0188 µM (active). For the same molecule, the GI50 (SF-539) was < 0.01 µM (active), the GI50 (HOP-92) was 0.0208 µM (active) and the GI50 (786-0) was < 0.0166 µM (active). The GI50 (MCF7) was < 0.01 µM (active), the GI50 (SN12C) was 0.0632 µM (active) and the GI50 (SF-295) was < 0.0204 µM (active). For the same molecule, the GI50 (Hs-578T) was < 0.0202 µM (active), the GI50 (UACC-62) was < 0.0184 µM (active) and the GI50 (MDA-MB-231) was 0.032 µM (active). For the same molecule, the GI50 (DU-145) was < 0.019 µM (active), the GI50 (U-251) was < 0.0107 µM (active) and the GI50 (SK-OV-3) was 0.392 µM (active). The GI50 (NCI-H460) was < 0.014 µM (active), the GI50 (SF-268) was < 0.0188 µM (active) and the GI50 (SK-MEL-28) was < 0.0164 µM (active). For the same molecule, the GI50 (A549) was 0.155 µM (active), the GI50 (CAKI-1) was 0.115 µM (active) and the GI50 (ACHN) was < 0.0171 µM (active). The GI50 (SK-MEL-2) was < 0.0292 µM (active), the GI50 (HCC 2998) was < 0.0262 µM (active) and the GI50 (NCI-H226) was < 0.016 µM (active). The GI50 (KM12) was < 0.0107 µM (active), the GI50 (MDA-MB-435) was < 0.0124 µM (active) and the GI50 (MDA-N) was < 0.0169 µM (active). The GI50 (SK-MEL-5) was < 0.0108 µM (active), the GI50 (UACC-257) was 0.0223 µM (active) and the GI50 (SNB-75) was < 0.0204 µM (active). The GI50 (Malme-3M) was < 0.0104 µM (active), the GI50 (HCT-116) was < 0.01 µM (active) and the GI50 (SNB-19) was < 0.0152 µM (active). The GI50 (NCI-H23) was < 0.0144 µM (active), the GI50 (A498) was 0.514 µM (active) and the GI50 (LOX IMVI) was < 0.01 µM (active). The GI50 (OVCAR-8) was < 0.01 µM (active), the GI50 (NCI-H522) was < 0.0105 µM (active) and the GI50 (OVCAR-3) was < 0.0199 µM (active). The GI50 (EKVX) was 0.264 µM (active), the GI50 (HCT-15) was less than 0.0185 µM and the GI50 (NCI/ADR-RES) was 0.347 µM (active). The GI50 (UO-31) was 0.0324 µM (active), the GI50 (T47D) was < 0.0166 µM (active) and the GI50 (OVCAR-5) was 0.0776 µM (active). The GI50 (CCRF-CEM) was < 0.0131 µM (active), the GI50 (RPMI-8226) was < 0.0111 µM (active) and the GI50 (M14) was < 0.0146 µM (active). The GI50 (K562) was < 0.01 µM (active), the GI50 (OVCAR-4) was 0.0314 µM (active) and the GI50 (IGROV-1) was < 0.01 µM (active).

For `C=CC(=C)CCC(Br)C(C)(C)Cl` (stereo not drawn), the GI50 (BT-549) was > 100 µM (inactive), the GI50 (COLO 205) was > 100 µM (inactive) and the GI50 (PC-3) was > 100 µM (inactive). The GI50 (HOP-62) was > 100 µM (inactive), the GI50 (SW-620) was > 100 µM (inactive) and the GI50 (TK-10) was > 100 µM (inactive). For the same molecule, the GI50 (SF-539) was > 100 µM (inactive), the GI50 (HOP-92) was > 100 µM (inactive) and the GI50 (786-0) was > 100 µM (inactive). For the same molecule, the GI50 (MCF7) was 46.6 µM (inactive), the GI50 (SN12C) was > 100 µM (inactive) and the GI50 (SF-295) was > 100 µM (inactive). For the same molecule, the GI50 (Hs-578T) was > 100 µM (inactive), the GI50 (UACC-62) was > 100 µM (inactive) and the GI50 (MDA-MB-231) was > 100 µM (inactive). The GI50 (DU-145) was > 100 µM (inactive), the GI50 (U-251) was > 100 µM (inactive) and the GI50 (SK-OV-3) was > 100 µM (inactive). For the same molecule, the GI50 (NCI-H460) was > 100 µM (inactive), the GI50 (SF-268) was > 100 µM (inactive) and the GI50 (SK-MEL-28) was > 100 µM (inactive). The GI50 (HL-60) was 37.1 µM (inactive), the GI50 (A549) was > 100 µM (inactive) and the GI50 (ACHN) was > 100 µM (inactive). For the same molecule, the GI50 (SK-MEL-2) was > 100 µM (inactive), the GI50 (HCC 2998) was > 100 µM (inactive) and the GI50 (HT-29) was > 100 µM (inactive). For the same molecule, the GI50 (NCI-H226) was > 100 µM (inactive), the GI50 (KM12) was > 100 µM (inactive) and the GI50 (MDA-MB-435) was > 100 µM (inactive). The GI50 (MDA-N) was > 100 µM (inactive), the GI50 (SK-MEL-5) was > 100 µM (inactive) and the GI50 (UACC-257) was > 100 µM (inactive). The GI50 (SNB-75) was > 100 µM (inactive), the GI50 (Malme-3M) was > 100 µM (inactive) and the GI50 (RXF 393) was > 100 µM (inactive). The GI50 (HCT-116) was > 100 µM (inactive), the GI50 (SNB-19) was > 100 µM (inactive) and the GI50 (NCI-H23) was > 100 µM (inactive). For the same molecule, the GI50 (OVCAR-8) was > 100 µM (inactive), the GI50 (NCI-H522) was 24.3 µM (inactive) and the GI50 (OVCAR-3) was > 100 µM (inactive). The GI50 (EKVX) was > 100 µM (inactive), the GI50 (HCT-15) was greater than 100 µM and the GI50 (NCI/ADR-RES) was > 100 µM (inactive). The GI50 (UO-31) was > 100 µM (inactive), the GI50 (T47D) was > 100 µM (inactive) and the GI50 (MOLT-4) was 85.1 µM (inactive). For the same molecule, the GI50 (OVCAR-5) was > 100 µM (inactive), the GI50 (CCRF-CEM) was 87.5 µM (inactive) and the GI50 (RPMI-8226) was > 100 µM (inactive). The GI50 (M14) was > 100 µM (inactive), the GI50 (K562) was > 100 µM (inactive) and the GI50 (OVCAR-4) was > 100 µM (inactive). For the same molecule, the GI50 (IGROV-1) was > 100 µM (inactive).
